From publication PMC9176662, “Design, synthesis, molecular modeling and biological evaluation of novel Benzoxazole-Benzamide conjugates via a 2-Thioacetamido linker as potential anti-proliferative agents, VEGFR-2 inhibitors and apoptotic inducers” (Journal of Enzyme Inhibition and Medicinal Chemistry, 2022)

Tests used:
MCF-7 cells = assay: Annexin V-FITC/PI apoptosis assay, MCF-7; format: cell-based, human; settings: for %Apoptosis %Early: control 0.47; for %Apoptosis %Late: control 1.34; for %Necrosis: control 1.6; for %Apoptosis %Total: control 3.41
Experimental: 2.4. Annexin V-FITC/PI apoptosis assay.
For this study, annexin V-FITC / PI apoptosis detection kit was used; HCT -116 and MCF-7 cells were stained with annexin V fluorescein isothiocyanate (FITC) and propidium iodide (PI) counter-stained.1 x 10^5 HCT-116 cells were 48 h incubated with compound 1 or 11, trypsinized, washed with phosphate-buffered saline (PBS), stained in the dark at 37 °C for 15 min utes.
Finally, the cells analyzed with a cytometer of FACS Caliber flow.

Bcl-xL = assay: Western blot of Bcl-xL expression in HCT-116; format: cell-based, human; settings: HCT-116, Western blot, normalised to β-actin
Description: It is well known that the anti-apoptotic proteins Bcl-2 and Bcl-xL are mainly overexpressed in various types of cancer, causing survival of cancer cells and/or drug resistance. Therefore, inhibition of these proteins expression leads to cancer cell death and has been used as a strategy for anticancer drug development. In this study, the impact of compounds 1 and 11 on Bcl-2 and Bcl-xL expression in HCT-116 and MCF-7 cancer cell lines was examined using Western blot analysis and all the data were normalised to β-actin (Figure 9).
2.5. Impact of compounds 1 and 11 on the level of anti-apoptotic markers (Bcl-2, and Bcl-xL).
Gel electrophoresis and immuno-blot analysis of proteins (Western Blot) method was used to examine the effect of compounds 1 and 11 on the level of anti-apoptotic markers (Bcl-2, and Bcl-xL). […]
The cells were then immediately frozen at −20 °C for 1 h for further lysis and collected by cell scraper and sonicated 2×10s. Total protein concentrations were determined colorimetrically using Bradford method before proceeding to the western blotting. […] Briefly, the membranes were incubated for 1 min with a mixture of equal volumes from ECL solution A and ECL solution B. The chemiluminescent signals were captured using a CCD camera-based imager (Chemi Doc imager, Biorad, USA), and the band intensities were then measured with β-actin as an internal reference protein. […]

SMILES | total increase in apoptosis compared to the control (MCF-7 cells) | %Apoptosis %Early (MCF-7 cells) [%] | %Apoptosis %Late (MCF-7 cells) [%] | %Necrosis (MCF-7 cells) [%] | %Apoptosis %Total (MCF-7 cells) [%] | Bcl-xL expression (Bcl-xL)
O=C(CSc1nc2cc(Cl)ccc2o1)Nc1ccc(C(=O)Nc2ccc(Cl)cc2)cc1 [Compound 11] | ~5.0 fold | 4.93 | 10.26 | 1.74 | 16.93 | inhibited
O=C(CSc1nc2ccccc2o1)Nc1ccc(C(=O)NC2CCCCC2)cc1 [Compound 1] | approximately 5.8 fold | 6.02 | 12.17 | 1.59 | 19.78 | inhibited
